Reference: patent publication US20250082585A1, “METHOD FOR STORING REDUCED COENZYME Q10” (KANEKA CORPORATION, priority 2021, published 2025)

Test: Evaluation of oxidation stability (QH residual rate after storage, QH ratio by HPLC)
Type: physicochemical
Procedure: The weight ratio of reduced coenzyme Q10 to total coenzyme Q10 (namely, reduced coenzyme Q10/(oxidized coenzyme Q10+reduced coenzyme Q10)) is defined as “QH ratio”. The QH ratio was determined by the following HPLC analysis. For the evaluation of oxidation stability, a rate of the change in the QH ratio at the end of the evaluation from that at the beginning of the evaluation was defined as “QH residual rate”, and the QH residual rate determined by the following expression was used as a measure of oxidation stability.
QH residual rate (%)=100×QH ratio at the end of the evaluation/QH ratio at the beginning of the evaluation […]
In a glass vial (volume 33 ml), 0.1 g of the QH Form I crystal was placed. […] The glass vial was sealed, and stored under a temperature of 40° C. and a relative humidity of 75% for 2 weeks, after which the QH residual rate was determined.
In a glass vial, 0.2 g of the QH Form I crystal was placed. The glass vial was opened, and stored under a temperature of 40° C. and a relative humidity of 11% for 2 weeks, after which the QH residual rate was determined.
In a glass vial (volume 33 ml), 0.1 g of the QH Form I crystal was placed. […] The glass vial was sealed, and stored under a temperature of 25° C. and a relative humidity of 60% for 4 weeks, after which the QH residual rate was determined. […]

| Compound | QH residual rate (0.1 g QH Form I crystal, with aqueous solution of Table 3 or without (comparative), sealed glass vial, 25° C., relative humidity 60%, 4 weeks) [%] | QH residual rate (0.2 g QH Form I crystal without water, opened glass vial, 40° C., relative humidity 11%, 2 weeks) [%] |
| --- | --- | --- |
| COc1c(O)c(C)c(C/C=C(\C)CC/C=C(\C)CC/C=C(\C)CC/C=C(\C)CC/C=C(\C)CC/C=C(\C)CC/C=C(\C)CC/C=C(\C)CC/C=C(\C)CCC=C(C)C)c(O)c1OC [Comparative Example 2, reduced coenzyme Q10] | 33.3 |  |
| COc1c(O)c(C)c(C/C=C(\C)CC/C=C(\C)CC/C=C(\C)CC/C=C(\C)CC/C=C(\C)CC/C=C(\C)CC/C=C(\C)CC/C=C(\C)CC/C=C(\C)CCC=C(C)C)c(O)c1OC [Comparative Example 1, reduced coenzyme Q10] |  | 34.9 |
